From patent US4997843A, “2,4-disubstituted derivatives of tetrahydrofuran useful for the treatment of PAF mediated illnesses” (J Uriach & Cia S.A., priority 1987, dated 1991) come the findings set out here.

Where two headings read alike, the source gives them in different places.

The test system of test [1] is platelet aggregation induced by PAF. Description: Test 1: inhibition of platelet aggregation induced by PAF in vitro (rabbit platelet rich plasma, Born nephelometric technique). Format: cell-based, male New Zealand albino rabbits. The note with it: PAF C18 16 nM final, read-out: IC50 (concentration of the drug needed to inhibit the platelet aggregation in a 50%). On the procedure: TEST 1: INHIBITION OF PLATELET AGGREGATION INDUCED BY PAF
The platelet rich plasma (PRP) is prepared by blood centrifugation at 250 xg for 10 min. at 4° C. and it is diluted with platelet poor plasma (PPP) obtained by additional centrifugation at 300 xg for 10 min. The amount of platelets is adjusted to […].

Test [2] deals with hypotension induced by PAF. Description: Test 2: inhibition of the hypotensive effect induced by PAF in normotense rats. It counts as in vivo, male Sprague Dawley rats. The conditions noted are these: anesthetized rats, compound via femoral vein 3 min before PAF (0.5 mg/Kg, i.v.); for ED50: Rattus norvegicus, iv, read-out: IC50 (inhibition of the hypotension induced by PAF). On the procedure: TEST 2--INHIBITION OF THE HYPOTENSIVE EFFECT INDUCED BY PAF IN NORMOTENSE RATS
Male Sprague Dawley rats, of 180-220 g of weight, anesthetized with sodium pentobarbital (50 mg/Kg, i.p. 1 mL/100 g) have been used. In order to measure the average arterial pressure a polyethylene catheter was introduced into the carotid artery. The arterial pressure was recorded with the help of a transducer connected with a R611 Beckman polygraph. The tested compounds were administrated through the femoral vein 3 min. before the injection of PAF (0.5 mg/Kg, i.v.).

Setting [3] is: Oryctolagus cuniculus, Platelet.

Regarding `CCCCCCCCCCCCCCC1COC(COC(=O)CCCCC[N+](C)(C)C)C1` (racemic) [Compound 76], the IC50 in test [1] (setting [3]) turned out to be 180 µM. On to `CCCCCCCCCCCCCCC1COC(COC(=O)CCCCC[n+]2ccsc2)C1` (racemic) [Compound 75, (±)-cis, trans-3-[6-[(4-tetradecyltetrahydrofuran-2-yl)methoxy]-6-oxohexyl]thiazolium 4-methylbenzenesulfonate], for which the IC50 in test [1] (setting [3]) came to 50 µM.

On to `CCCCCCCCCCCCCCC1COC(COCCCC[n+]2ccccc2C)C1` (racemic) [Compound 80, (±)-cis, trans-2-methyl-1-[4-[(4-tetradecyltetrahydrofuran-2-yl)methoxy]butyl]pyridinium 4-methylbenzenesulfonate], for which the IC50 in test [1] (setting [3]) was 75 µM.

Consider `CCCCCCCCCCCCCCOC[C@H]1CO[C@@H](COC(=O)N(Cc2cccc[n+]2CC)C(C)=O)C1.[Cl-]` (racemic) [Compound 25, (±)-cis, trans-N-ethyl-2-[N-acetyl-[[[(4-tetradecyloxymethyltetrahydrofuran-2-yl)methoxy]carbonyl]amino]-methyl]pyridinium chloride], for which, in test [2], the “IC50 (inhibition of the hypotension induced by PAF)” value is listed as 0.081 mg/Kg, i.v. Moreover, the IC50 in test [1] came to 0.095 µM.

Turning to `CCCCCCCCCCCCCCCCOCC1COC(COC(=O)CCCCC[n+]2ccsc2)C1` (racemic) [Compound 5, (±)-cis, trans-3-[6-[(4-hexadecyloxymethyltetrahydrofuran-2-yl)methoxy]-6-oxohexyl]thiazolium 4-methylbenzenesulfonate], in test [2], the ED50 is 1.6 mg/kg. In test [1] (setting [3]), the IC50 came to 4.8 µM. For `CCCCCCCCCCCCCCCCCCOCC1CC(COC(=O)NCc2cccc[n+]2C)CO1` (racemic) [Compound 66, (±)-cis, trans-N-methyl-2-[[[[(2-octadecyloxymethyl-tetrahydrofuran-4-yl)methoxy]carbonyl]amino]methyl]pyridinium iodide], in that order: 5 mg/kg and 1.6 µM. Regarding `CCCCCCCCCCCCCCC1COC(COCCCCCCC[n+]2ccsc2)C1` (racemic) [Compound 82, (±)-cis, trans-3-[7-[(4-tetradecyltetrahydrofuran-2-yl)methoxy]heptyl]thiazolium 4-methylbenzenesulfonate], in test [2], the ED50 is 1.5 mg/kg. In addition, in test [1] (setting [3]), the IC50 was 1.8 µM. For `CCCCCCCCCCCCCCCCOCC1COC(COC(=O)N(Cc2cccc[n+]2C)C(C)=O)C1` (racemic) [Compound 12, (±)-cis, trans-N-methyl-2-[N-acetyl-[[[(4-hexadecyloxymethyltetrahydrofuran-2-yl)methoxy]carbonyl]amino]methyl]pyridinium iodide], in that order: 0.23 mg/kg and 0.1 µM.

As to `CCCCCCCCCCCCCCC1COC(COCCCCCC[n+]2ccsc2)C1` (racemic) [Compound 70, (±)-cis, trans-3-[6-[(4-tetradecyltetrahydrofuran-2-yl)methoxy]hexyl]thiazolium 4-methylbenzenesulphonate], the ED50 in test [2] was 2.2 mg/kg. Moreover, the IC50 in test [1] (setting [3]) is 2.2 µM. On the same counts, the results for `CCCCCCCCCCCCCCCCCCOCC1COC(COC(=O)N(Cc2cccc[n+]2CC)C(C)=O)C1` (racemic) [Compound 20, (±)-cis, trans-N-ethyl-2-[N-acetyl-[[[(4-octadecyloxymethyltetrahydrofuran-2yl)methoxy]carbonyl]amino]methyl]pyridinium iodide] are 0.035 mg/kg and 0.034 µM. Take `CCCCCCCCCCCCCCC1COC(COCCCCCC[n+]2ccccc2)C1` (racemic) [Compound 74, (±)-cis, trans-1-[6-[(4-tetradecyltetrahydrofuran-2-yl)methoxy]hexyl]pyridinium methanesulfonate]: in test [1] (setting [3]), the IC50 was 6.3 µM. Turning to `CCCCCCCCCCCCCCC1COC(COCCCCCC[n+]2ccn(C)c2)C1` (racemic) [Compound 73, (±)-cis, trans-3-methyl-1-[6-[(4-tetradecyltetrahydrofuran-2-yl)methoxy]hexyl]imidazolium 4-methylbenzenesulfonate], the IC50 in test [1] (setting [3]) was determined as 15 µM. `CCCCCCCCCCCCCCCCCCOCC1COC(COC(=O)CCCCC[n+]2ccsc2)C1` (racemic) [Compound 6, (±)-cis, trans-3-[6-[(4-octadecyloxymethyltetrahydrofuran-2-yl)methoxy]-6-oxohexyl]thiazolium 4-methylbenzenesulfonate]: in test [2], the ED50 stood at 1.9 mg/kg. Besides, the IC50 in test [1] (setting [3]) amounted to 8.6 µM. In the case of `CCCCCCCCCCCCCCCCOCC1COC(COC(=O)N(Cc2cccc[n+]2CC)C(C)=O)C1` (racemic) [Compound 58, (±)-cis, trans-N-ethyl-2-[N-acetyl-[[[(4-hexadecyloxymethyltetrahydrofuran-2-yl)methoxy]carbonyl]amino]methyl]pyridinium chloride], the “IC50 (inhibition of the hypotension induced by PAF)” value in test [2] is 0.044 mg/Kg, i.v. The IC50 in test [1] was 0.009 µM. On to `CCCCCCCCCCCCCCCCCCOCC1CC(COC(=O)CCCCC[n+]2ccsc2)CO1` (racemic) [Compound 64, (±)-cis, trans-3-[6-[(2-octadecyloxymethyltetrahydrofuran-4-yl)methoxy]6-oxohexyl]thiazolium 4-methylbenzenesulfonate], for which, in test [2], the ED50 stood at 1.1 mg/kg. Also, in test [1] (setting [3]), the IC50 was 1.5 µM.

On to `CCCCCCCCCCCCCCCCCNC(=O)OCC1COC(COC(=O)N(Cc2cccc[n+]2CC)C(C)=O)C1` (racemic) [Compound 53, (±)-cis, trans-N-ethyl-2-[N-acetyl-[[[(4-heptadecylaminocarbonyloxymethyltetrahydrofuran-2-yl)methoxy]carbonyl]amino]methyl]pyridinium iodide], for which the ED50 in test [2] was determined as 0.042 mg/kg. In addition, the IC50 in test [1] (setting [3]) was 0.027 µM. In the case of `CCCCCCCCCCCCCCCCCCOCC1CC(COCCCCC[n+]2ccsc2)CO1` (racemic) [Compound 62, (±)-cis, trans-3-[5-[(2-octadecyloxymethyltetrahydrofuran-4-yl)methoxy]pentyl]thiazolium 4-methylbenzenesulfonate], the IC50 in test [1] (setting [3]) worked out at 2.1 µM. Take `CCCCCCCCCCCCCCCNC(=O)OCC1COC(COC(=O)N(Cc2cccc[n+]2CC)C(C)=O)C1` (racemic) [Compound 49, (±)-cis, trans-N-ethyl-2-[N-acetyl-[[[(4-pentadecylaminocarbonyloxymethyltetrahydrofuran-2-yl)methoxy]-carbonyl]amino]methyl]pyridinium iodide]: the ED50 in test [2] worked out at 0.033 mg/kg. Moreover, the IC50 in test [1] (setting [3]) is 0.0045 µM. Consider `CCCCCCCCCCCCCCOCC1COC(COCCCCCCC[n+]2ccsc2)C1` (racemic) [Compound 2, (±)-cis, trans-3-[7-(4-tetradecyloxymethyltetrahydrofuran-2-yl)methoxy]heptyl]thiazolium 4-methylbenzenesulfonate], for which, in test [2], the ED50 was 1.4 mg/kg. The IC50 in test [1] (setting [3]) stood at 0.9 µM. Regarding `CCCCCCCCCCCCCCC1COC(COCCCCCC[N+](C)(C)C)C1` (racemic) [Compound 71, (±)-cis, trans-6-[6-(4-tetradecyltetrahydrofuran-2-yl)methoxy]N,N,N-trimethylhexaminium 4-methylbenzenesulfonate], the IC50 in test [1] (setting [3]) stood at 8.2 µM. Take `CCCCCCCCCCCCCCC1COC(COCCCC[n+]2ccsc2)C1` (racemic) [Compound 79, (±)-cis, trans-3-[4-[(4-tetradecyltetrahydrofuran-2-yl)methoxy]butyl]thiazolium 4-methylbenzenesulfonate]: in test [1] (setting [3]), the IC50 came out at 39 µM. The same measure, in the same setting: the value for `CCCCCCCCCCCCCCC1COC(COCCCC[N+]2(C)CCOCC2)C1` (racemic) [Compound 81, (±)-cis, trans-4-methyl-4-[4-[(4-tetradecyltetrahydrofuran-2-yl)methoxy]butyl]morpholinium 4-methylbenzenesulfonate] was 51 µM.

With `CCCCCCCCCCCCCCC1COC(COC(=O)CCCCC[n+]2ccn(C)c2)C1` (racemic) [Compound 78, (±)-cis, trans-3-methyl-1-[6-[(4-tetradecyltetrahydrofuran-2-yl)methoxy]-6-oxohexyl]imidazolium 4-methylbenzenesulfonate], in test [1] (setting [3]), the IC50 stood at 210 µM. Still for that read-out and setting: the value for `CCCCCCCCCCCCCC[C@@H]1CO[C@H](COCCCCCC[n+]2ccsc2)C1` (relative stereo) [Compound 83, (±)-cis-3-[6-[(4-tetradecyltetrahydrofuran-2-yl)methoxy]hexyl]thiazolium4-methylbenzenesulfonate] was 2.6 µM; that for `CCCCCCCCCCCCCCC1COC(COC(=O)CCCCC[n+]2ccccc2)C1` (racemic) [Compound 77, (±)-cis, trans-1-[6-[(4-tetradecyltetrahydrofuran-2-yl)methoxy]-6-oxohexyl]pyridinium 4-methylbenzenesulfonate] was 120 µM. Turning to `CCCCCCCCCCCCCC[C@@H]1CO[C@@H](COCCCCCC[n+]2ccsc2)C1` (racemic) [Compound 84, (±)-trans-3-[6-[(4-tetradecyltetrahydrofuran-2-yl)methoxy]hexyl]thiazolium 4-methylbenzenesulfonate], the IC50 in test [1] (Oryctolagus cuniculus) worked out at 2.6 µM.
